Measurements: patent publication KR20130112248A, “피라졸로피리미딘 유도체 화합물, 이를 포함하는 산화질소 생성 억제용 조성물 및 뇌신경 질환 예방 및 치료용 약학적 조성물” (한국과학기술연구원, priority 2012, dated 2013)

Tested on: NO production in BV-2 cells [NO 생성; BV-2 세포]
Test: Nitric oxide (NO) quantification (nitrite, Griess reaction) in LPS-activated BV-2 cells
Format: cell-based
Settings: 20 μM, LPS 0.2 ㎍/mL, 24 h co-treatment, nitrite by Griess at 540 nm; for activity at 20 µM: Mus musculus, BV-2, 24 h

Molecule	activity at 20 µM	other results
CSc1nc(NCc2ccc(C)cc2)c2cnn(-c3ccc(C)cc3)c2n1 [화합물 21f, N-(4-메틸벤질)-6-(메틸티오)-1-p-톨릴-1H-피라졸로[3,4-d]피리미딘-4-아민]	49 ± 5.9%	
C=CCn1ncc2c(NCc3ccccc3Cl)nc(SC)nc21 [화합물 13o, N-(2-클로로벤질)-1-알릴-6-(메틸티오)-1H-피라졸로[3,4-d]피리미딘-4-아민]	17.5 ± 1.5%	
C=CCNc1nc(SC)nc2c1cnn2CCc1cccc(OC)c1 [화합물 18i, 1-(3-메톡시펜에틸)-N-알릴-6-(메틸티오)-1H-피라졸로[3,4-d]피리미딘-4-아민]	78 ± 4.4%	
CSc1nc(Sc2ccc(F)cc2)c2cnn(Cc3ccccc3)c2n1 [화합물 16u, 4-(4-플루오로페닐티오)-1-벤질-6-(메틸티오)-1H-피라졸로[3,4-d]피리미딘]	28 ± 1.8%	
CSc1nc(Sc2ccc(Cl)cc2)c2cnn(Cc3ccccc3)c2n1 [화합물 16r, 4-(4-클로로페닐티오)-1-벤질-6-(메틸티오)-1H-피라졸로[3,4-d]피리미딘]	20 ± 1.9%	
CSc1nc(N2CCN(C)CC2)c2cnn(-c3ccccc3)c2n1 [화합물 15u, 1-페닐-4-(4-메틸)피페라지노-6-(메틸티오)피라졸로[3,4-d]피리미딘]	64%	
CSc1nc(NC(C)(C)CO)c2cnn(Cc3ccccc3)c2n1 [화합물 16j, 1-벤질-4-[(1-하이드록시-2,2-다이메틸)에틸]아미노-6-(메틸티오)피라졸로[3,4-d]피리미딘]	48 ± 8%	
COc1ccc([C@H](C)Nc2nc(SC)nc3c2cnn3Cc2ccccc2)cc1 [화합물 16zb, 1-벤질-N-((S)-1-(4-메톡시페닐)에틸)-6-(메틸티오)-1H-피라졸로[3,4-d]피리미딘-4-아민]	49 ± 2.4%	
COc1ccccc1CCn1ncc2c(NCc3ccccc3)nc(SC)nc21 [화합물 19e, 1-(2-메톡시펜에틸)-N-벤질-6-(메틸티오)-1H-피라졸로[3,4-d]피리미딘-4-아민]	60 ± 5.9%	
CCCCNc1nc(SC)nc2c1cnn2Cc1ccccc1 [화합물 16zg, 1-벤질-N-뷰틸-6-(메틸티오)-1H-피라졸로[3,4-d]피리미딘-4-아민]	55 ± 1.9%	
CCCCNc1nc(SC)nc2c1cnn2CCNC(=O)OC(C)(C)C [화합물 14i, 2-(4-(뷰틸아미노)-6-(메틸티오)-1H-피라졸로[3,4-d]피리미딘-1-일)에틸카바메이트]	54.2 ± 2.3%	
CCCCNc1nc(NC(C)c2ccccc2)c2cnn(Cc3ccccc3)c2n1 (stereo not shown) [24i, 1-벤질-N6-뷰틸-N4-(1-페닐에틸)-1H-피라졸로[3,4-d]피리미딘-4,6-디아민]		NO (% of LPS) (1440 min): 42±0.8 % of LPS
C=CCn1ncc2c(NC(C)(C)CO)nc(SC)nc21 [화합물 13k, 2-(1-알릴-6-(메틸티오)-1H-피라졸로[3,4-d]피리미딘-4-일아미노)-2-메틸프로판-1-올]	15.9 ± 0.6%	
COc1ccc(Sc2nc(SC)nc3c2cnn3Cc2ccccc2)cc1 [화합물 16q, 4-(4-메톡시페닐티오)-1-벤질-6-(메틸티오)-1H-피라졸로[3,4-d]피리미딘]	40 ± 1.8%	
COc1ccccc1CNc1nc(SC)nc2c1cnn2C(C)(C)C [화합물 17i, N-(2-메톡시벤질)-1-t-뷰틸-6-(methylthio)-1H-피라졸로[3,4-d]피리미딘-4-아민]	45 ± 5.9%	
CSc1nc(NCc2ccc(C)cc2)c2cnn(Cc3ccccc3)c2n1 [화합물 16ze, N-(4-메틸벤질)-1-벤질-6-(메틸티오)-1H-피라졸로[3,4-d]피리미딘-4-아민]	51 ± 3.4%	
2-(4-(4-플루오로벤질아미노)-6-(메틸티오)-1H-피라졸로[3,4-d]피리미딘-1-일)에틸카바메이트 [화합물 14f]		NO (% of LPS): 38.3±1.3 % of LPS
CSc1nc(NC(C)(C)CO)c2cnn(C(C)(C)C)c2n1 [화합물 17o, 2-(1-t-뷰틸-6-(메틸티오)-1H-피라졸로[3,4-d]피리미딘-4-일아미노)-2-메틸프로판-1-올]	73.6 ± 2.4%	
CSc1nc(NCc2ccc(Cl)cc2)c2cnn(CCNC(=O)OC(C)(C)C)c2n1 [화합물 14e, 2-(4-(4-클로로벤질아미노)-6-(메틸티오)-1H-피라졸로[3,4-d]피리미딘-1-일)에틸카바메이트]	26.8 ± 0.1%	
COc1cccc(CCn2ncc3c(NCc4ccc(F)cc4)nc(SC)nc32)c1 [화합물 18g, 1-(3-메톡시펜에틸)-N-(4-플루오로벤질)-6-(메틸티오)-1H-피라졸로[3,4-d]피리미딘-4-아민]	58 ± 4.8%	
CSc1nc(NC(C)c2ccccc2)c2cnn(C)c2n1 (stereo not shown) [화합물 12o, 1-메틸-6-(메틸티오)-N-(1-페닐에틸)-1H-피라졸로[3,4-d]피리미딘-4-아민]	70 ± 5%	
C=CCNc1nc(SC)nc2c1cnn2-c1ccccc1 [화합물 15f, 1-페닐-4-알릴아미노-6-(메틸티오)피라졸로[3,4-d]피리미딘]	60 ± 17%	
